# Test results taken from paper PMC10803810, “Interaction of designed cationic antimicrobial peptides with the outer membrane of gram-negative bacteria” (Scientific Reports, 2024).
# Assays:
# [1] = tested on: MDR P. aeruginosa clinical isolate 004B1-3; assay: Minimum inhibitory concentration (MIC) assay; assay type: cell-based, Pseudomonas aeruginosa; conditions: MHB, 10^5 CFU/well, peptide 0-50 μM, 37 °C, 20 h, OD600; average of n = 6 replicates from N = 3 biological experiments; asterisk = beyond 50 μM
# Method: (§1) Figure 1 Minimum inhibitory concentrations (MICs) for the present peptide library against three clinical isolates of MDR P. aeruginosa and a laboratory strain of B. subtilis. Increasing concentrations of peptides were independently incubated with bacterial cells for 20 h. MIC was calculated based on bacterial growth in an untreated control and in 1% Triton. Data represent the average from n = 6 replicates from N = 3 biological experiments performed on different days; error bars depict the standard error of the mean. Asterisk denotes MIC values beyond the highest tested concentration (50 μM). TEXT PRINTED IN THE PICTURE: Ponericin W1: Isolate 004B1-3 MIC (μM): 1.17; Isolate 035B7-1 MIC (μM): 2.86; Isolate 014B2-1 MIC (μM): 4.68; B. subtilis MIC (μM): 0.65 | PonAmp: Isolate 004B1-3 MIC (μM): 1.56; Isolate 035B7-1 MIC (μM): 2.60; Isolate 014B2-1 MIC (μM): 3.12; B. subtilis MIC (μM): 0.52 | PonN: Isolate 004B1-3 MIC (μM): 1.56; Isolate 035B7-1 MIC (μM): 2.60; Isolate 014B2-1 MIC (μM): 5.20; B. subtilis MIC (μM): 1.56 | PonC: Isolate 004B1-3 MIC (μM): 1.30; Isolate 035B7-1 MIC (μM): 1.56; Isolate 014B2-1 MIC (μM): 2.86; B. subtilis MIC (μM): 1.30 | PonAmp 2A: Isolate 004B1-3 MIC (μM): 11.46; Isolate 035B7-1 MIC (μM): 50; Isolate 014B2-1 MIC (μM): 50; B. subtilis MIC (μM): 0.85 | PonN 2A: Isolate 004B1-3 MIC (μM): 1.82; Isolate 035B7-1 MIC (μM): 1.82; Isolate 014B2-1 MIC (μM): 5.20; B. subtilis MIC (μM): 2.08 | PonC 2A: Isolate 004B1-3 MIC (μM): 2.08; Isolate 035B7-1 MIC (μM): 3.64; Isolate 014B2-1 MIC (μM): 6.25; B. subtilis MIC (μM): 1.04 | PonAmp 3A: B. subtilis MIC (μM): 0.78 | PonN 3A: Isolate 004B1-3 MIC (μM): 4.69; Isolate 035B7-1 MIC (μM): 16.67; Isolate 014B2-1 MIC (μM): 23; B. subtilis MIC (μM): 8.30 | PonC 3A: Isolate 004B1-3 MIC (μM): 5.73; Isolate 035B7-1 MIC (μM): 33.33; Isolate 014B2-1 MIC (μM): 50; B. subtilis MIC (μM): 1.56 | PonAmp 4A: B. subtilis MIC (μM): 3.12 | PonN 4A: B. subtilis MIC (μM): 12.5 | PonC 4A: B. subtilis MIC (μM): 10.42
# (§2) Clinical isolates of P. aeruginosa [Research Ethics Board (REB) #1000019444] were obtained with informed consent from CF patients with chronic infection followed at the Hospital for Sick Children (Toronto, Canada)[66]. Consent was obtained from a parent or legal guardian if not of age. All methods were performed in accordance with the relevant guidelines and regulations for research involving human subjects at the Hospital for Sick Children. Antimicrobial susceptibility testing was performed as per the Clinical Laboratory Standards Institute (CLSI)[67].
# (§3) Three clinical isolates of MDR P. aeruginosa were previously obtained from CF patients with chronic infection at the Hospital for Sick Children [Research Ethics Board (REB) #1000019444] (Toronto, Canada) and selected for use in this work along with a laboratory strain of B. subtilis. Serial dilutions of peptides (10 μL) were prepared to achieve concentrations from 50 to 0 μM on a sterile 96-well clear bottom plate. Cells were resuspended in Mueller − Hinton Broth (MHB) and added at 10^5 CFU/well to achieve a final volume of 100 μL. Peptide and bacteria were allowed to incubate at 37 °C for 20 h. OD600 was measured at the end of the incubation period. Reports of MIC are background subtracted from an MHB-only control.
# [2] = tested on: MDR P. aeruginosa clinical isolate 035B7-1; assay: Minimum inhibitory concentration (MIC) assay; assay type: cell-based, Pseudomonas aeruginosa; conditions: MHB, 10^5 CFU/well, peptide 0-50 μM, 37 °C, 20 h, OD600; average of n = 6 replicates from N = 3 biological experiments; asterisk = beyond 50 μM
# Method: as §1, §2, §3
# [3] = tested on: MDR P. aeruginosa clinical isolate 014B2-1; assay: Minimum inhibitory concentration (MIC) assay; assay type: cell-based, Pseudomonas aeruginosa; conditions: MHB, 10^5 CFU/well, peptide 0-50 μM, 37 °C, 20 h, OD600; average of n = 6 replicates from N = 3 biological experiments; asterisk = beyond 50 μM
# Method: as §1, §2, §3
# [4] = tested on: laboratory strain of B. subtilis; assay: Minimum inhibitory concentration (MIC) assay; assay type: cell-based, Bacillus subtilis; conditions: MHB, 10^5 CFU/well, peptide 0-50 μM, 37 °C, 20 h, OD600; average of n = 6 replicates from N = 3 biological experiments
# Method: as §1, §3
# [5] = tested on: MDR isolates of P. aeruginosa; assay type: cell-based, Pseudomonas aeruginosa; conditions: for average MIC against MDR P. aeruginosa isolates: average over the clinical isolates
# Description: We began our investigations by testing the antimicrobial efficacy of our peptide library against P. aeruginosa, an opportunistic gram-negative bacterium found in patients with cystic fibrosis (CF)[44],[45]. MDR isolates of P. aeruginosa obtained from chronically infected CF patients were independently challenged with the peptide library using a minimum inhibitory concentration assay (MIC, defined as the lowest drug concentration required to inhibit bacterial growth). […] A similar trend is observed among the 3A analogs. At four Leu-to-Ala substitutions, activity is universally lost as the sequences no longer meet the minimum hydrophobicity threshold for spontaneous membrane insertion.
# Figure 1 Minimum inhibitory concentrations (MICs) for the present peptide library against three clinical isolates of MDR P. aeruginosa and a laboratory strain of B. subtilis. Increasing concentrations of peptides were independently incubated with bacterial cells for 20 h. MIC was calculated based on bacterial growth in an untreated control and in 1% Triton. Data represent the average from n = 6 replicates from N = 3 biological experiments performed on different days; error bars depict the standard error of the mean. Asterisk denotes MIC values beyond the highest tested concentration (50 μM). […]
# Three clinical isolates of MDR P. aeruginosa were previously obtained from CF patients with chronic infection at the Hospital for Sick Children [Research Ethics Board (REB) #1000019444] […] OD600 was measured at the end of the incubation period. […]
# [6] = tested on: LPS from P. aeruginosa 10; assay: Dansyl-polymyxin (DPX) displacement assay; assay type: binding, Pseudomonas aeruginosa; conditions: 3 μg/mL LPS saturated by 2.5 μM DPX, peptide added in 1 μM increments up to 10 μM, 10 mM Tris 10 mM NaCl pH 7.4; ex 340 / em 485 nm; n = 3
# Description: We then sought to evaluate whether the relative trends in antimicrobial efficacy observed between Lys-clustered versus helical amphipathic sequences against gram-negative bacteria correlate to their degree of interaction with the OM. In doing so, we tested the binding affinity of our peptide library to LPS using a Dansyl-Polymyxin (DPX) displacement assay. DPX is a fluorescently-tagged derivative of Polymyxin B that highly associates with polyanionic sites on LPS[46]. Dansyl fluorescence reaches a maximum when surrounded by a hydrophobic environment (ex. lipid A moiety of LPS), thereby enabling us to track bound and unbound states of the LPS-DPX complex. First, we empirically determined the concentration of DPX required to completely saturate a set quantity of LPS in solution (Fig. 2). Upon identifying the saturation threshold, we assessed the ability of our peptide library to outcompete for LPS binding by displacing bound DPX. […] High sequence hydrophobicity is observed to supplement peptide propensity to displace DPX as the binding affinity of PonN and PonC to LPS progressively weakens with increasing Leu-to-Ala substitutions (Fig. 3b–d).
# Lyophilized stocks of LPS from P. aeruginosa 10 (#L9143) and Dansyl-labelled polymyxin B (DPX) suspended in water (#SBR00029) were purchased from Sigma. 1 mg/mL LPS was prepared in water and stored at 4 °C until use. As described in detail elsewhere, saturation of the LPS-DPX complex was first determined on a Photon Technology International fluorometer using a 1 cm cuvette. Stepwise additions of DPX (in 0.25 μM increments up to 5 μM) was added to 3 μg/mL LPS suspended in 10 mM Tris 10 mM NaCl buffer at pH 7.4. DPX fluorescence was excited at 340 nm (2 nm slit width) and emission was recorded at 485 nm (5 nm slit width).
# To measure DPX displacement, peptides were independently added at 1 μM increments (up to 10 μM) to preparations containing 3 μg/mL LPS saturated by 2.5 μM DPX. DPX fluorescence was read immediately upon peptide addition. Drops in fluorescence are interpreted as the removal of DPX from LPS due to competitive binding by peptide.
# [7] = in vitro dye release; cited from earlier work
# Description: In contrast, Lys-clustered PonN and PonC have been previously found to exclusively adopt random coils when exposed to liposomes composed of an approximate 3:1 ratio of PE:PG phospholipids, representative of the bacterial IM[37]. The latter configuration ostensibly deters peptide capacity for pore formation and/or carpeted assembly compared to helical amphipathic constructs such as PonAmp, which continues to display high helical propensity at both membrane interfaces. The comparatively shallow and/or transient nature of interaction between Lys-clustered constructs and the IM interface was f ...
# human red blood cells = conditions: up to 50 μM; cited from earlier work
# Description: In designing the Ponericin peptide library, our principal goal is to gauge systematically how the relative distribution of charged residues influences peptide-membrane interactions. As well, hydrophobicity is of particular interest to our investigations as earlier studies on the Ponericin W1 library reveal the highly toxic nature of native Ponericin W1 against mammalian red blood cells. Thus, stepwise Leu-to-Ala substitutions (up to four substitutions) were subsequently applied to each parent analog to simultaneously evaluate the contribution of overall sequence hydrophobicity. All peptide ...
Substance,"MIC, Isolate 004B1-3 [1] [µM]","MIC, Isolate 035B7-1 [2] [µM]","MIC, Isolate 014B2-1 [3] [µM]","MIC, B. subtilis [4] [µM]",average MIC against MDR P. aeruginosa isolates [5],Displacement of DPX from LPS (change in DPX fluorescence) [6],Rupture of liposome mimetics of the bacterial IM (dye release) [7],Toxicity against mammalian red blood cells (human red blood cells),"MIC against MDR P. aeruginosa isolates ([5]; three clinical isolates from CF patients, isolate not specified, 20 h, highest tested 50 μM) [µM]"
H-KKKKKKWAGSAAIGALLPSVVGLFQ-NH2 [PonN 2A],1.82,1.82,5.20,2.08,~ 3 μM,,,,
H-KKKKKKWLGSALIGALLPSVVGLFQ-NH2 [PonN],1.56,2.60,5.20,1.56,,highly interrupt the LPS-DPX complex,more gradually,,
H-WLGSALIGALLPSVVGLFQKKKKKK-NH2 [PonC],1.30,1.56,2.86,1.30,,highly interrupt the LPS-DPX complex,more gradually,,
H-WAGSAAIGAALPSVVGLFQKKKKKK-NH2 [PonC 3A],5.73,33.33,50,1.56,,,,,
"H-WLGSALKIGAKLLPSVVGLFKKKKQ-NH2 [Ponericin W1, reference compound]",1.17,2.86,4.68,0.65,,negligible change in fluorescence,,highly toxic,
H-WAGSAAIGAALPSVVGAFQKKKKKK-NH2 [PonC 4A],,,,10.42,,,,,
H-KKKKKKWAGSAAIGAALPSVVGAFQ-NH2 [PonN 4A],,,,12.5,,,,,
H-KKKKKKWAGSAAIGAALPSVVGLFQ-NH2 [PonN 3A],4.69,16.67,23,8.30,,,,,
H-WAGSAAIGALLPSVVGLFQKKKKKK-NH2 [PonC 2A],2.08,3.64,6.25,1.04,~ 4 μM,,,,
H-WAKKAAKIGAKALPSVVKAFKGSGQ-NH2 [PonAmp 4A],,,,3.12,,,,,
H-WLKKALKIGAKLLPSVVKLFKGSGQ-NH2 [PonAmp],1.56,2.60,3.12,0.52,,negligible change in fluorescence,ruptured instantaneously,,
H-WAKKAAKIGAKALPSVVKLFKGSGQ-NH2 [PonAmp 3A],,,,0.78,,,,,
H-WAKKAAKIGAKLLPSVVKLFKGSGQ-NH2 [PonAmp 2A],11.46,50,50,0.85,,,,,50
